Key:
ScMreB5 [1] = target: T1, ScMreB5 (Spiroplasma citri, UniProt Q8VQG1); experiment: thermal shift (SYPRO Orange); type: binding; conditions: 2.6 µM protein, protein purified with ADP and MgCl2 added
T1 construct: gene mreB5; monomer about 38 kD, forms filaments
T1 sequence (Q8VQG1 1-352): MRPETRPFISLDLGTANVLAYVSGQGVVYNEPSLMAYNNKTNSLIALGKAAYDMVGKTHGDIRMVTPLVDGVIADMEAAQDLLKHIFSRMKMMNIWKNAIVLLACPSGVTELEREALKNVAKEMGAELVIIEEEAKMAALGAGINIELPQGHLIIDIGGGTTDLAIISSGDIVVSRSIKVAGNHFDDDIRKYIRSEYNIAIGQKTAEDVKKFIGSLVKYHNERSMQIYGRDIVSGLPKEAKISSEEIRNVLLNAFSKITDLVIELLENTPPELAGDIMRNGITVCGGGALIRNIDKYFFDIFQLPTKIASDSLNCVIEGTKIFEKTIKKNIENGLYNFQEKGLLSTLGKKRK

ScMreB5 [2] = target: T1, ScMreB5; experiment: X-ray crystal structure, […] Å; conditions: nucleotide-binding pocket; Mg2+ and K+ bound; 2 mM ADP, 2 mM MgCl2; ADP also co-purifies (HPLC)

For Nc1ncnc2c1ncn2[C@@H]1O[C@H](COP(=O)(O)OP(=O)(O)OP(=O)(O)O)[C@@H](O)[C@H]1O [ATP], the Tm (ScMreB5 [1]; 1 mM ATP) was “increased stability in the KCl buffer and upon addition of excess ADP or ATP”.

For Nc1ncnc2c1ncn2[C@@H]1O[C@H](COP(=O)(O)OP(=O)(O)O)[C@@H](O)[C@H]1O [ADP], the Tm (ScMreB5 [1]; 1 mM ADP) was “Thermal shift assays showed increased stability in the KCl buffer and upon addition of excess ADP” and the “X-ray crystal structure, 2.3 Å” value (ScMreB5 [2]) was “ScMreB5 also crystallized in the presence of ADP (PDB accession no. 7BVZ)”.
